Results as given in patent US11576943B2, “Functional food composition having cranial nerve protection effect and blood flow improvement effect” (chzin Co., Ltd., priority 2020, dated 2023).
Marks after values point to notes of the source that are not given here.

Legend:
rats = conditions: administered orally to rats; cited from earlier work
[1] = cited from earlier work
[2] = system: transient local cerebral ischemia animal model; test: Cranial neuroprotective action by oral administration in transient local cerebral ischemia animal model (MCAO); format: in vivo, sprague-dawly male rats
Procedure: The measurement of cranial neuroprotective action by oral administration of a sample in the transient local cerebral ischemia animal model was carried out as follows according to a known method.
Experimental animals were 7-week-old sprague-dawly male rats having a weight of 260 to 270 g and the experimental animals were adapted in the breeding room for 7 days before use under the environment in which the contrast cycle was controlled automatically by 12 hours. The temperature of the breeding room was maintained at 23±2° C., the humidity was 55±10%, and food and water were freely ingested.
In order to measure the neuroprotective action according to the oral administration of the sample, an animal model of cerebral ischemia was created. The middle cerebral artery occlusion (MCAO) surgery was performed to create the animal model of cerebral ischemia. […]
In order to measure the neuroprotective action of the sample according to the oral administration, the brain was excised 24 hours after the middle cerebral artery occlusion and stained with 2,3,5-triphenyltetrazolium chloride. […] The area of cerebral infarction (infarct area, mm^2) was measured using a computerized image analyzer, and the infarct volume (mm^3) was calculated by multiplying the total sum of the infarct area of each section by the thickness of the section. The measured values were expressed as mean±SEM (*p<0.05, **p<0.01).

Structure (SMILES)	LD50 (rats)	solubility in water [1]	Cerebral infarct volume (mm^3) ([2]; 2 hours after induction of cerebral ischemia and 2 hours after reperfusion, brain excised 24 hours after MCAO, mean±SEM)	Cranial nerve protection effect (%) ([2]; 24 hours after MCAO, relative to physiological saline group)
CC(C)[C@@H]1CC[C@@H](C)C[C@H]1O (racemic) [dl-menthol]	3180 mg/kg	rarely dissolved in water		
CC1=NN(c2ccccc2)C(=O)C1 [MCI-186]			184.2 ± 17.3** mm^3	47.71%
